Reference: patent publication US10287328B2, “Treatment of diabetes, toll-like receptor 4 modulators and methods for using the same” (KeMyth Biotech Co., Ltd., priority 2016, dated 2019)
Where a SMILES comes first, the peptide text is derived from it.

Tests used:
[1] = test system: HUVECs; assay type: cell-based, human; details: for toxicity to HUVECs (FIG. 15): MTS assay, 1, 10 or 100 nM, statement for high concentration (100 nM)
Experimental: Cell viability was detected by a methanethiosulfonate (MTS) assay. In brief, 2×10^4 HUVECs were seeded to a 48-well plates in 100 μl endothelial cell medium (ECM, ScienCell Research Laboratory, Cat. 1001, USA) per well and incubated for 24 hrs. The media was removed and the cells were then incubated with media having 2% fetal bovine serum (FBS), in the absence or presence of various peptides, such as PLY, PLY123, PLY4, C70PLY4 or N35PLY4, at a concentration of 1, 10 or 100 nM. After incubation for 18 hours, the media was removed and 20 μl MTS reagents (20%) were added to each well in the final volume of 100 μl and placed in incubator for 1 hours. The optical density was measured at 490 nm using a plate reader.

[2] = test system: neointima formation of aorta; test: Neointima formation of aorta (HE stain) in STZ-treated HFD-fed rats; assay type: in vivo
Experimental: The ascending part of aorta were taken from mice, including control health mice and HFD induced diabetic mice, with and without treatment of C70PLY4, and kept in 10% formalin buffered for 24 h. The specimens were routinely embedded in paraffin blocks and cut in transversal sections (3 μm). The slides were stained with hematoxylin and eosin. The specimens were analyzed with light microscope.
The present study determined if C70PLY4 attenuates the status of atherosclerosis in HFD-fed rats.

[3] = test system: HUVECs; test: Cell apoptosis, TUNEL assay in HUVECs; assay type: cell-based, human; details: positive control of TUNEL and caspase-3 assays
Experimental: Cell apoptosis was detected by using commercial terminal deoxynucleotidyl transferase-dUTP nick end labeling (TUNEL) and caspase-3 activity kits, i.e., Apo-BrdU in Situ DNA Fragmentation Assay Kit (BioVision) and NucView™ 488 Caspase-3 Enzyme Substrate (Biotium). In brief, after incubation with M199 media in the presence or absence of […] various PLY peptides, at 37° C., 5% CO2 for 1 hour, HUVECs were washed with PBS and fixed with fixation buffer on ice for 20 min. Cells were then soaked in 70% alcohol for 1 hr. After 2 times of wash by washing buffer, cells were incubated in DNA labeling solution for 60 min at 37° C. Cells were then treated with rinse buffer and incubated with antibody buffer for 30 min at room temperature. The cell nuclei were stained with propidium iodide for 30 min. Samples were observed by fluorescent microscopeand photographed charge-coupled device (CCD) camera.

[4] = molecular target: MD2/TLR4 interaction (Homo sapiens, UniProt O00206); test: In vitro protein competition binding assay for MD2/TLR4 interaction; details: MD2 50 nM, peptide 50 μM to 3.05 nM
Experimental: The recombinant TLR4 protein was diluted in PBS (2 μg/mL) and immobilized on a 96-well (100 ng/well) ELISA plate by incubation at 37° C. for 2 h. The wells were washed three times with PBS, followed by blocking with the addition of 300 μL 5% BSA in PBS at ambient temperature overnight. Then, the plate was rewashed three times with PBST before performed competition binding assay. The binding of MD2 (50 nM) to TLR4 was competed by adding various amounts (2-fold serial dilution from 50 μM to 3.05 nM) of C70PLY4, N35PLY4, or M50PLY4 peptide, and the residual binding was examined using anti-MD2 and anti-mouse-IgG-HRP antibodies diluted in 1% BSA as described in herein.

[5] = molecular target: recombinant TLR4 protein (Homo sapiens, UniProt O00206); test: In vitro protein binding assay for MD2 and TLR4 (ELISA); details: TLR4 2 μg/mL coated, MD2 133.3 to 0.065 nM; read-out: Kd, binding affinity to the TLR4 protein
Experimental: The recombinant TLR4 protein was diluted in phosphate buffer saline (PBS) (2 μg/mL) and immobilized on a 96-well (100 ng/well) enzyme-linked immunosorbent assay (ELISA) plate by incubation at 37° C. for 2 h. The wells were washed three times with PBS, followed by blocking with the addition of 300 μL 5% bovine serum albumin (BSA) in PBS at ambient temperature overnight. Then, the plate was washed three times with PBST (PBS with 0.05% Tween 20 solution) before the addition of the recombinant MD2 protein solutions at various concentrations (2-fold serial dilution from 133.3 to 0.065 nM). The ligands (MD2) and TLR4 proteins were incubated at 37° C. for 2 h, and the plate was then washed three times with PBST, followed by the addition of 100 μL anti-MD2 antibodies diluted in 1% BSA (1:1000). After incubation at ambient temperature for 1 h, the plate was washed with PBST three times, followed by the addition of 100 μL anti-mouse IgG-HRP antibodies diluted in 1% BSA (1:2000). After incubation at ambient temperature for 1 h, the plate was washed with PBST three times, followed by the addition of 100 μL of the HRP substrate (i.e. 3,3′,5,5′-tetramethylbenzidine, TMB) to each well. […] The optical density (OD450) in each well was determined using an ELISA plate reader. […]

[6] = test system: TLR4; test: LPS-induced PMN transendothelial migration, PMNs from wild type C3H/HeN mice; assay type: cell-based; details: for LPS induced PMN migration (FIGS. 11-12): WT mice model
Experimental: (§1) To obtain mice neutrophils from TLR4-deficient [TLR4(−/−)] C3H/HeJ mice and wild type C3H/HeN mice, inflammation was induced by 0.1 ml of uric acid solution into the peritoneal cavity of the mouse. The uric acid solution (noncrystalline form) was prepared by mixing with saline (10% [wt/vol]) and sonicated for 10 min. Immediately before inoculation, the milky white precipitated uric acid solution was shaken vigorously. Peritoneal exudate cells were harvested 4, 18, or 24 h after injection by two lavages of the peritoneal cavity with 5 ml of cold phosphate-buffered saline (PBS; total volume, 10 ml). Uric acid-induced peritoneal cells (UAPMN) were washed by centrifugation at 200×g for 10 min at 4° C. Followed by hypotonic lysis to eliminate red blood cells, centrifugation and an additional wash were performed. The cells were then resuspended in Krebs-Ringer phosphate buffer (KRG; pH 7.3). The numbers and populations of peritoneal exudate cells were determined by staining the nuclei with Turk reagent and by cytospin centrifugation followed by May-Grünwald-Giemsa staining, respectively. Uric acid injection into the peritoneal cavity gave a yield of 1 to 2×10^7 cells/mouse depending on time of incubation (4 hr). The levels of purity of the uric acid-induced PMN were 95% after 4 h postinjection. Viability of the isolated neutrophils exceeded 95% as determined by trypan blue exclusion. The PMN from TLR4(−/−) C3H/HeJ mice and wild type C3H/HeN mice were then used for PMN transmigration Assay.
Neutrophils from human were isolated blood that was drawn in a syringe containing preservative-free heparin (20 U/ml final), and mixed with an equal volume of PBS containing 3% dextran and then incubated for 20 min at room temperature. The leukocyte-rich plasma (upper layer) was collected and pellet cells was obtained from the plasma by centrifuge and resuspended in 0.9% NaCl. Layer 10 ml Ficoll-Hypaque solution beneath the cell suspension. After centrifuge 1500×g for 20 min, aspirate the Ficoll-Hypaque layer, leaving the neutrophil/RBC pellet. Cells were subjected to hypotonic lysis by resuspending each neutrophil/RBC pellet in cold 0.2% NaCl for 30 sec. At the end of this period, restore isotonicity by adding ice-cold 1.6% NaCl. After centrifuge, resuspend cells in ice-cold PBS/glucose buffer. Neutrophils from mice were isolated from the peritoneum as previously described. See, e.g., Rabes et al., Curr Top Microbiol Immunol 397:215-227 (2016). The cell concentration was adjusted to […]. The viability of the isolated neutrophils exceeded 95%, as determined by Trypan blue exclusion.
Transendothelial migration was performed by using a Transwell system. Transwell filters were pre-seeded with HUVEC monolayers for 24 hrs and transferred to clean 24-well plates. HUVECs were washed twice with DPBS, 500 μl of ECM was added to the Transwell filter compartment and 10^6 neutrophils were then added in upper chamber. Transendothelial migration was stimulated by addition of LPS to the lower chamber to a final concentration of 1 μg/ml. Cells were incubated with the endothelial cells for 1 h at 37° C. At the conclusion of the incubation, migrated cells were collected from the lower chamber and counted in a hemacytometer in triplicate. Percent PMN transmigration was calculated by dividing the number of PMN recovered from the lower chamber by the number of PMN initially added.
PMN transendothelial migration plays an important role in early stage of atherogenesis. […].

[7] = test system: PMNs isolated from TLR4(−/−) mice C3H/HeJ; test: LPS-induced PMN transendothelial migration, PMNs from TLR4(-/-) C3H/HeJ mice; assay type: cell-based; details: LPS 1 μg/ml, HUVEC monolayer Transwell
Experimental: as §1, with “Followed by hypotonic lysis to eliminate red blood cells, centrifugation and an additional wash were performed. The cells were then resuspended in Krebs-Ringer phosphate buffer (KRG; pH 7.3).” left out, “Uric acid injection into the peritoneal cavity gave a yield of 1 to 2×10^7 cells/mouse depending on time of incubation (4 hr). The levels of purity of the uric acid-induced PMN were 95% after 4 h postinjection.” left out, “The PMN from TLR4(−/−) C3H/HeJ mice and wild type C3H/HeN mice were then used for PMN transmigration Assay.” left out
Neutrophils from human were isolated blood that was drawn in a syringe containing preservative-free heparin (20 U/ml final), and mixed with an equal volume of PBS containing 3% dextran and then incubated for 20 min at room temperature. […] The viability of the isolated neutrophils exceeded 95%, as determined by Trypan blue exclusion. […]

Chain of recombinant TLR4 protein (O00206 24-839): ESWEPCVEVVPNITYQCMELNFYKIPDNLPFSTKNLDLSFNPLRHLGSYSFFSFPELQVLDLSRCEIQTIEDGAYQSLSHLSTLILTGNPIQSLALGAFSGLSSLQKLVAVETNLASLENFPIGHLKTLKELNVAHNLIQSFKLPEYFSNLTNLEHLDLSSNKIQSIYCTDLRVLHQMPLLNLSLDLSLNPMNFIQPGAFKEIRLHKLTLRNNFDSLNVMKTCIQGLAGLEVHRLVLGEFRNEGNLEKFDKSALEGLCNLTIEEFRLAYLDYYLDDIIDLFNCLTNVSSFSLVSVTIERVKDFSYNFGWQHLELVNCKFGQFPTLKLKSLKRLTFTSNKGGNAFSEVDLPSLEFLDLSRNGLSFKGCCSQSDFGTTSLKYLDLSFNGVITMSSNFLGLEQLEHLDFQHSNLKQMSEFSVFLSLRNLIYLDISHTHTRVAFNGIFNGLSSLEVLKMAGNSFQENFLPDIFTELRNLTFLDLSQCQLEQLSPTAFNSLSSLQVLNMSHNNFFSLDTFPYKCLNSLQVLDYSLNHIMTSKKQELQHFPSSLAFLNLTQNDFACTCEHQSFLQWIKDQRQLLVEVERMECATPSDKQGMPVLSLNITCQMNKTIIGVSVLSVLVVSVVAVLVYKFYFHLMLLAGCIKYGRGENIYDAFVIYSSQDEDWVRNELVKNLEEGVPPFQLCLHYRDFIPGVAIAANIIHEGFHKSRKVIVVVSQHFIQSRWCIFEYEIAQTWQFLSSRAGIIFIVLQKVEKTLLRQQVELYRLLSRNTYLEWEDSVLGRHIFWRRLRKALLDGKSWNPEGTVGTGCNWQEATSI
Chain of MD2/TLR4 interaction (O00206 24-631): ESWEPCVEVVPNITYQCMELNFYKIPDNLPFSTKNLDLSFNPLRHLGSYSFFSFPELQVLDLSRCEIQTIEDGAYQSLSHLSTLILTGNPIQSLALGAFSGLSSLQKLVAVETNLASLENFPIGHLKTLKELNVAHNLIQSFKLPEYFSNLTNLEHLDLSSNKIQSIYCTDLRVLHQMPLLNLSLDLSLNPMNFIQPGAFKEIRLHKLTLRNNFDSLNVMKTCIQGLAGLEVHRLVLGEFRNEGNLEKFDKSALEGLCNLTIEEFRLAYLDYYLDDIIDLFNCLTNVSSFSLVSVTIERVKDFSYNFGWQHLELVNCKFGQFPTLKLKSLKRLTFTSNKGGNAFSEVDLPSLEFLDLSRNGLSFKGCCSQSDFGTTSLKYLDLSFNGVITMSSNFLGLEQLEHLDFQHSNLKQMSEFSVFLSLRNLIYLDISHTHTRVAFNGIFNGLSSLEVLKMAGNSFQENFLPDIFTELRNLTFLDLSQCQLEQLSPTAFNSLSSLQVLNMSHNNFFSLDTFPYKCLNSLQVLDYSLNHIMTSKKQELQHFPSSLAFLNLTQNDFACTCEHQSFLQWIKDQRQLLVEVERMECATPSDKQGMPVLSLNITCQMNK

CC[C@H](C)[C@H](NC(=O)[C@H](CCCCN)NC(=O)[C@@H](NC(=O)[C@H](CO)NC(=O)[C@H](CC(C)C)NC(=O)[C@H](CC(N)=O)NC(=O)[C@H](CCCNC(=N)N)NC(=O)[C@@H](NC(=O)[C@H](CC(N)=O)NC(=O)CNC(=O)[C@H](CCCCN)NC(=O)[C@H](CC(C)C)NC(=O)[C@@H]1CCCN1C(=O)[C@@H](NC(=O)[C@H](CO)NC(=O)[C@@H](NC(=O)[C@@H](NC(=O)[C@H](Cc1ccccc1)NC(=O)[C@H](Cc1c[nH]cn1)NC(=O)[C@H](C)NC(=O)[C@@H](NC(=O)[C@H](CC(C)C)NC(=O)[C@H](CC(=O)O)NC(=O)[C@@H](N)CCC(N)=O)[C@@H](C)O)[C@@H](C)O)[C@@H](C)O)[C@@H](C)CC)C(C)C)C(C)C)C(=O)N[C@@H](CCCNC(=N)N)C(=O)N[C@@H](CCC(=O)O)C(=O)N[C@@H](CS)C(=O)N[C@H](C(=O)NCC(=O)N[C@@H](CC(C)C)C(=O)N[C@@H](C)C(=O)N[C@@H](Cc1c[nH]c2ccccc12)C(=O)N[C@@H](CCC(=O)O)C(=O)N[C@@H](Cc1c[nH]c2ccccc12)C(=O)N[C@@H](Cc1c[nH]c2ccccc12)C(N)=O)[C@@H](C)O [N35PLY4] (H-QDLTAHFTTSIPLKGNVRNLSVKIRECTGLAWEWW-NH2)
toxicity to HUVECs (FIG. 15) [1]: no toxic effects

CC(=O)N[C@@H](CS)C(=O)O [NAC, N-acetylcycteine, reference compound]
neointima formation of aorta induced by STZ [2]: partially improve the STZ effect on the neointima formation

CC[C@@]1(O)C(=O)OCc2c1cc1n(c2=O)Cc2cc3ccccc3nc2-1 [camptothecin, reference compound]
apoptotic cells [3]: about 60%

M50PLY4: peptide of 6th to 55th amino acid residues of C70PLY4 (407-456), lacking the N-terminal motif QDLTA, SEQ ID NO: 8 (HFTTSIPLKGNVRNLSVKIRECTGLAWEWWRTVYEKTDLPLVRKRTISIW) [reference compound]
blocking capability for MD2 and TLR4 protein interaction (in words) [4]: no competitive capability

MD2: recombinant MD2 protein, an extracellular protein associated with the extracellular domain of TLR4 protein
Kd [5]: 18.4 ± 3.9 nM

N35PLY4m24L25K: N35PLY4 with double mutations, position 24 I to L and position 25 R to K, SEQ ID NO: 7 (QDLTAHFTTSIPLKGNVRNLSVKLKECTGLAWEWW)
LPS induced PMN migration (FIGS. 11-12) [6]: inhibitory effects

N35PLY4m25K (QDLTAHFTTSIPLKGNVRNLSVKIKECTGLAWEWW)
LPS induced PMN migration (FIGS. 11-12) [6]: inhibitory effects

full-length PLY: full length pneumococcal pneumolysin, 1-471 amino acid residues, SEQ ID NO: 1, prepared by recombinant technology [reference compound]
PMNs migration, WT mice model (FIG. 10) ([6]; PMNs from C3H/HeN mice, LPS 1 μg/ml, HUVEC monolayer Transwell): did not affect the PMNs migration | LPS induced PMN migration (FIGS. 11-12) [6]: enhances PMN migration induced by LPS | cells survived ([1]; HUVECs, 100 nM, 18 hours, MTS): 30% | toxicity to HUVECs (FIG. 15) [1]: toxic to cells | PMNs migration, TLR4(−/−) mice model (FIG. 10) [7]: did not affect the PMNs migration
